Publication PMC6274398, “Three Novel Triterpenoids from Taraxacum officinale Roots” (Molecules, 2016)
Where two headings read alike, the source gives them in different places.

How the values were obtained:
RAW264.7 cells = test: RAW264.7 cell proliferation / cell viability (MTT); assay type: cell-based, mouse; conditions: for Cell Viavility %: 24 h, MTT, vs DMSO (100%), mean ± S.E., n=4
Procedure: RAW264.7 cell proliferation was examined in accordance with a previously reported method. Briefly, RAW264.7 cells (5 × 10^4 cells in 100 μL) were seeded on a 96-well microplate and incubated for 24 h. Dulbecco's modified eagle's medium (DMEM)-containing test samples (100 μL total volume, final concentration of 30, 10, 3, or 1 μM) dissolved in dimethyl sulfoxide (DMSO, final concentration 0.2%) was added. After being treated for 24 h, thiazolyl blue tetrazolium bromide (MTT) solution was added. After a 3-h incubation, 20% sodium dodecyl sulfate in 0.1 M HCl was added to dissolve the formazan produced in the cells. Absorbance in each well was read at 570 nm using a microplate reader. The optical density of vehicle control cells was assumed to be 100%.

[1] = system: NO production in RAW 264.7 mouse macrophages stimulated by lipopolysaccharide (LPS); test: Inhibitory assay of NO production (Griess) in LPS-stimulated RAW264.7 cells; assay type: cell-based; conditions: for IC50 / activity at 1 µM / activity at 3 µM / activity at 10 µM / activity at 30 µM: Mus musculus; for IC50: read-out: IC50 (inhibition of NO production); for activity at 1 µM / activity at 3 µM / activity at 10 µM / activity at 30 µM: read-out: Produced NO %; for NO inhibitory activity (in words): 1–30 μM tested
Procedure: An inhibitory assay of NO production was examined in accordance with a previously reported method with minor modifications. Briefly, RAW264.7 cells (5 × 10^4 cells in 100 μL) were seeded on a 96-well microplate and incubated for 24 h. DMEM-containing test samples (100 μL total volume, final concentration of 30, 10, 3, or 1 μM) dissolved in DMSO (final concentration 0.2%) and LPS (final concentration of 5 μg/mL) was added. After being treated for 24 h, the supernatant of the culture medium was transferred to another 96-well microplate, and 50 μL of 0.15% N-(1-naphtyl)ethylenediamine in H2O and 1.5% sulfanilamide in 7.5% phosphoric acid were then added. After being incubated for 30 min, absorbance in each well was read at 570 nm using a microplate reader. The optical density of vehicle control cells was assumed to be 100%

[2] = RAW264.7, 1 μM, LPS 5 μg/mL, 24 h, vs DMSO (100%), mean ± S.E., n=4
[3] = RAW264.7, 3 μM, LPS 5 μg/mL, 24 h, vs DMSO (100%), mean ± S.E., n=4
[4] = RAW264.7, 10 μM, LPS 5 μg/mL, 24 h, vs DMSO (100%), mean ± S.E., n=4
[5] = RAW264.7, 30 μM, LPS 5 μg/mL, 24 h, vs DMSO (100%), mean ± S.E., n=4

SMILES | Cell Viavility % (RAW264.7 cells; 1 μM) | Cell Viavility % (RAW264.7 cells; 3 μM) | Cell Viavility % (RAW264.7 cells; 10 μM) | Cell Viavility % (RAW264.7 cells; 30 μM) | IC50 ([1]; RAW264.7, 24 h) | activity at 1 µM ([1]; RAW264.7, 24 h) | activity at 3 µM ([1]; RAW264.7, 24 h) | activity at 10 µM ([1]; RAW264.7, 24 h) | activity at 30 µM ([1]; RAW264.7, 24 h) | melting point | activity at 1 µM [1, 2] | activity at 3 µM [1, 3] | activity at 10 µM [1, 4] | activity at 30 µM [1, 5] | IC50 ([1]; LPS-stimulated RAW264.7, 24 h) | Cytotoxicity (in words) (RAW264.7 cells; at 1–30 μM) | NO inhibitory activity (in words) [1] | Cytotoxicity at effective concentration (in words) (RAW264.7 cells; at 1–10 μM) | Cytotoxicity (in words) (RAW264.7 cells; at higher concentrations) | Cytotoxicity at effective concentration (in words) (RAW264.7 cells; at 1 and 3 μM)
CO[C@H]1C[C@]2(C)CC[C@]3(C)[C@H](CC[C@@H]4[C@@]5(C)CC[C@H](OC(C)=O)C(C)(C)[C@@H]5CC[C@]43C)[C@@]23O[C@@]13C(C)C [Compound 1, 18β,19β-epoxy-21β-methoxylupan-3β-yl acetate] | (95.0 ± 0.7) % | (104.2 ± 1.3) % | (102.6 ± 0.7) % | (107.4 ± 2.0) % | > 30 µM | 94.8 ± 1.2% | 101.4 ± 0.7% | 90.5 ± 2.4% | 95.7 ± 4.6% |  |  |  |  |  |  |  |  |  |  | 
CC(=O)O[C@H]1CC[C@]2(C)[C@H]3CC[C@@]4(C)[C@@H]5[C@@H](C)[C@H](C)CC[C@]5(C)CC[C@]4(C)C3=CC(=O)[C@H]2C1(C)C [Compound 2, 3β-acetoxybauer-7-en-6-one] | (100.0 ± 1.3) % | (102.2 ± 0.3) % | (105.1 ± 0.3) % | (105.7 ± 2.0) % |  |  |  |  |  | 110 to 112 °C | 95.6 ± 2.7% | 101 ± 2.6% | 86.5 ± 1.4% | 71.4 ± 1.8% | > 30 µM |  |  |  |  | 
CC(C)C1=CC(=O)C(C)CCC2(C)C(CCC3C4(C)CCC(=O)C(C)(C)C4CCC32C)C1=O (stereo not drawn) [Compound 7, officinatrione] | (98.3 ± 2.6) % | (103.0 ± 2.4) % | (99.7 ± 3.8) % | (99.8 ± 3.0) % |  |  |  |  |  |  | 101 ± 1% | 101 ± 2.5% | 89.8 ± 1.1% | 66.8 ± 0.8% | > 30 µM | no cytotoxicity | exhibited NO inhibitory activities |  |  | 
CNC(=N)NCCC[C@H](N)C(=O)O [L-NMMA, N^G-monomethyl-L-arginine acetate, reference compound] | (101.5 ± 0.9) % | (101.9 ± 0.4) % | (98.5 ± 0.9) % | (109.4 ± 0.5) % |  |  |  |  |  |  | 93.3 ± 2.2% | 91.4 ± 0.8% | 68.9 ± 4.5% | 43.1 ± 1.1% | 23.9 µM |  |  |  |  | 
C=C(C)C(=O)CC[C@@H](C)[C@@H]1CC[C@]2(C)C3=CC[C@H]4C(C)(C)[C@@H](OC(C)=O)CC[C@]4(C)[C@H]3CC[C@@]12C [Compound 10] | (108.3 ± 4.7) % | (100.4 ± 0.2) % | (100.2 ± 0.1) % | (2.6 ± 0.4) % | 18.4 µM | 93.8 ± 1.8% | 81.6 ± 3.7% | 67.5 ± 2.4% | 37 ± 1.8% |  |  |  |  |  |  |  | exhibited NO inhibitory activities | did not exhibit cytotoxicity | some cytotoxicity | 
CC(=O)O[C@H]1CC[C@]2(C)[C@H]3CC[C@@]4(C)[C@H]([C@H](C)CCC=C(C)C)CC[C@]4(C)C3=CC(=O)[C@H]2C1(C)C [Compound 3, 3β-acetoxyeupha-7,24-dien-6-one] | (100.0 ± 1.4) % | (94.6 ± 8.2) % | (104.2 ± 0.7) % | (103.8 ± 1.0) % | > 30 µM | 101 ± 2.6% | 93.7 ± 1.4% | 93.3 ± 1.6% | 93.1 ± 0.9% | 140 to 143 °C |  |  |  |  |  |  |  |  |  | 
CC(C)=CCC[C@@H](C)[C@@H]1CC[C@]2(C)C3=CC[C@H]4C(C)(C)C(=O)CC[C@]4(C)[C@H]3CC[C@@]12C [Compound 9, eupha-7,24-dien-3-one] | (99.3 ± 0.2) % | (98.8 ± 0.2) % | (99.1 ± 0.4) % | (99.9 ± 0.6) % | > 30 µM | 98.4 ± 3.9% | 100 ± 1.6% | 109 ± 2% | 108 ± 4.7% |  |  |  |  |  |  |  |  |  |  | 
CO[C@@H]1C=C2[C@@H]3CC(C)(C)CC[C@]3(C)CC[C@@]2(C)[C@]2(C)CC[C@H]3C(C)(C)C(=O)CC[C@]3(C)[C@@H]12 [Compound 8, 11α-methoxyolean-12-en-3-one] | (99.9 ± 0.1) % | (100.4 ± 0.1) % | (100.5 ± 0.2) % | (103.0 ± 1.6) % |  |  |  |  |  |  | 102.9 ± 0.7% | 105 ± 3.1% | 90.2 ± 7.1% | 64.1 ± 3.3% | > 30 µM | no cytotoxicity | exhibited NO inhibitory activities |  |  | 
CC(=O)O[C@H]1CC[C@]2(C)[C@H]3CC[C@@H]4C5=C(C(C)C)C(=O)C[C@]5(C)CC[C@@]4(C)[C@]3(C)CC[C@H]2C1(C)C [Compound 5, 21-oxolup-18-en-3β-yl acetate] | (98.4 ± 3.1) % | (94.8 ± 3.9) % | (90.7 ± 1.8) % | (88.9 ± 2.3) % | > 30 µM | 110 ± 5.2% | 106 ± 3.2% | 94.9 ± 4.3% | 92.7 ± 4.7% |  |  |  |  |  |  |  |  |  |  | 
C=C(C)[C@@H]1CC[C@]2(CO)CC[C@]3(C)[C@H](CC[C@@H]4[C@@]5(C)CC[C@H](O)C(C)(C)[C@@H]5CC[C@]43C)[C@@H]12 [Compound 6, betulin] | (99.8 ± 0.1) % | (93.7 ± 1.1) % | (76.7 ± 0.7) % | (66.7 ± 1.2) % | 17 µM | 83.4 ± 1.5% | 75 ± 3.2% | 65.4 ± 0.5% | 36.3 ± 0.6% |  |  |  |  |  |  |  | exhibited NO inhibitory activities |  | some cytotoxicity | did not exhibit cytotoxicity
CC(=O)O[C@H]1CC[C@]2(C)[C@H]3CC[C@@H]4[C@@]56O[C@]5(C(C)C)[C@@H](O)C[C@]6(C)CC[C@@]4(C)[C@]3(C)CC[C@H]2C1(C)C [Compound 4, 18β,19β-epoxy-21β-hydroxylupan-3β-yl acetate] | (98.4 ± 0.9) % | (97.9 ± 0.3) % | (92.7 ± 1.0) % | (49.5 ± 0.7) % | 16.9 µM | 83.6 ± 0.9% | 76.8 ± 2.5% | 66 ± 0.8% | 35.4 ± 2.2% |  |  |  |  |  |  |  | exhibited NO inhibitory activities | did not exhibit cytotoxicity | some cytotoxicity | 
